Assay results: paper PMC11224465, “Characterization of the somatostatin system in tilapia: implications for growth and reproduction” (Frontiers in Endocrinology, 2024)
Several values for one entry are separate records, joined by “and”; a condition that tells them apart may be missing. Equal values may be shown once. Entries after “also recorded” stand apart in the source; their conditions may differ. Positions of bridges follow the written chain, without caps; N, C: chain ends. Non-standard residues stand in square brackets, D forms with d. Residues, ends and D or L forms follow the SMILES beside them. *: point of attachment. Ahp = NCCCCCCC(=O)O; Bn = c1ccc(C*)cc1

What was measured:
[1] = molecular target: T1, tilapia SSTR2a (Oreochromis niloticus, UniProt I3KUD5); assay: Cre-luc reporter assay, agonist/antagonist combination plus forskolin, COS-7 cells with SSTR2a; format: cell-based, Nile tilapia (Oreochromis niloticus); conditions: mean ± SEM
Source text: (§1) The signaling pathways of SSTRs were studied by inserting the entire coding sequence of the four receptors expressed in the pituitary (SSTR2a, SSTR3a, SSTR5b, and SSTR3b; accession nos. XP_003438730.1, XP_019215873.1, XP_003452896.1, and XP_019213185.1, respectively; Table 1 ) into pcDNA3.1 (Invitrogen) and verified by cloning and sequencing. The sequences were obtained from GenScript Biotech based on sequence information retrieved from GenBank. The procedures for transient transfection of the different cell lines and receptor stimulation have been described previously ([35], [36]). In brief, COS-7 cells were cotransfected with a luciferase reporter plasmid (Cre-luc; 3 µg) and one of the SSTRs (3 µg). As a control treatment, the […] (data not shown). […] Six hours after stimulation, the cells were analyzed using the GloMax multidetection system (Promega).
(§2) In another set of assays, the SST receptors were exposed to increasing concentrations of cyclosomatostatin, an SSTR antagonist (0–1000 nM; each in triplicate), in combination with octreotide, an SSTR agonist (10 nM), and FSK (20 μM), or increasing concentrations of octreotide (0–1000 nM; each in triplicate) in combination with cyclosomatostatin (10 nM) and FSK (20 μM). […]

[2] = molecular target: T2, tilapia SSTR3a (Oreochromis niloticus, UniProt I3K8H1); assay: Cre-luc reporter assay, agonist/antagonist combination plus forskolin, COS-7 cells with SSTR3a; format: cell-based, Nile tilapia (Oreochromis niloticus); conditions: in presence of octreotide 10 nM and FSK 20 μM, mean ± SEM, read-out: EC50 on SST-R3a (Cre-luciferase)
T2 sequence (I3K8H1 1-482): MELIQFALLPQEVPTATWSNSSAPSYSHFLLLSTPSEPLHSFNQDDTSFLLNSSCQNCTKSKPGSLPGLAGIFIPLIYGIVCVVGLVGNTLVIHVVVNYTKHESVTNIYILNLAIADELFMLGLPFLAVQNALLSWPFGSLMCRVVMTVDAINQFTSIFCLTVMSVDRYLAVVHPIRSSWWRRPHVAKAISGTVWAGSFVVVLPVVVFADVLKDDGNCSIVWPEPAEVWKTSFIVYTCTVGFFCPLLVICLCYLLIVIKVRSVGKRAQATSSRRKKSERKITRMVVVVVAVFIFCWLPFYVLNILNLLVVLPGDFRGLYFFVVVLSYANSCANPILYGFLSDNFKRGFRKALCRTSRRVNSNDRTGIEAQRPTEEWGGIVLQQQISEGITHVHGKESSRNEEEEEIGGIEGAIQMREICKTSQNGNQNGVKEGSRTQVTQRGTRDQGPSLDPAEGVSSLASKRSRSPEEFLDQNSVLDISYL
Source text: as §1, §2

[3] = molecular target: T3, tilapia SSTR5b (Oreochromis niloticus, UniProt I3J1C6); assay: Cre-luc reporter assay, agonist/antagonist combination plus forskolin, COS-7 cells with SSTR5b; format: cell-based, Nile tilapia (Oreochromis niloticus); conditions: mean ± SEM
T3 sequence (I3J1C6 1-359): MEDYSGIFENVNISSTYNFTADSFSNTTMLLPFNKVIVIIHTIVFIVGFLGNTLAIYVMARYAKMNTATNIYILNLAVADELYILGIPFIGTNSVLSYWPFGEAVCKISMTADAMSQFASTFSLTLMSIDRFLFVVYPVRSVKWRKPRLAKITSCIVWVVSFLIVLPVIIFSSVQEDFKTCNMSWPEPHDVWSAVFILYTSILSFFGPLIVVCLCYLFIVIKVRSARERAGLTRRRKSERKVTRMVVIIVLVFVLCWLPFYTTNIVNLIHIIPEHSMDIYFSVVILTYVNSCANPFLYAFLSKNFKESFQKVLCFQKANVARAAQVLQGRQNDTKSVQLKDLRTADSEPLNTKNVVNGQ
Source text: as §1, §2

[4] = molecular target: T4, tilapia SSTR3b (Oreochromis niloticus, UniProt I3L056); assay: Cre-luc reporter assay, agonist/antagonist combination plus forskolin, COS-7 cells with SSTR3b; format: cell-based, Nile tilapia (Oreochromis niloticus)
Source text: as §1
In another set of assays, the SST receptors were exposed to increasing concentrations of cyclosomatostatin, an SSTR antagonist (0–1000 nM; each in triplicate), in combination with octreotide, an SSTR agonist (10 nM), and FSK (20 μM), or increasing concentrations of octreotide (0–1000 nM; each in triplicate) in combination with cyclosomatostatin (10 nM) and FSK (20 μM). Three individual experiments were conducted using distinct batches of COS-7 cells for each experiment and including three replicates for every concentration.

[5] = test system: FSH plasma levels; assay: In vivo effect on FSH plasma levels (ELISA) after IP injection; design: species or system Nile tilapia (Oreochromis niloticus); conditions: female tilapia, 100 µg/kg IP, sampled 2, 4, 6, 24 h
Method: (§3) Adult female tilapia (body weight 89.29 ± 32.93 g) were injected IP with saline, cyclosomatostatin, or octreotide (100 μg/kg; n = 8 fish per group). The fish were bled from the caudal blood vessels into heparinized syringes at 0, 2, 4, 6, and 24 h after injection. Blood was centrifuged at 3,200 rpm for 30 min at 4°C to obtain plasma samples, which were stored at -20°C until assayed. This standard protocol was used previously to test the effect of GnRH and other hypothalamic neuropeptides on circulating levels of LH, FSH, and GH in tilapia ([33], [37], [38]). Three independent experiments were performed for each treatment. Plasma levels of LH, FSH, and GH were measured by specific competitive ELISAs developed for tilapia ([39], [40]) based on recombinant ([…] or rtiGH. The […] produced against […]β ([40]), or rtGH ([39]), and […]βα ([37]) or rtGH ([39]) was used to generate a standard curve. The sensitivity of plasma measurements was 15.84 pg/ml for LH, 0.24 pg/ml for FSH, and 35.0 pg/ml for GH.

[6] = test system: LH plasma levels; assay: In vivo effect on LH plasma levels (ELISA) after IP injection; design: species or system Nile tilapia (Oreochromis niloticus); conditions: female tilapia, 100 µg/kg IP, sampled 2, 4, 6, 24 h
Method: as §3

[7] = test system: GH plasma levels; assay: In vivo effect on GH plasma levels (ELISA) after IP injection; design: species or system Nile tilapia (Oreochromis niloticus); conditions: female tilapia, 100 µg/kg IP, sampled 2, 4, 6, 24 h
Method: as §3

[8] = molecular target: T1, tilapia SSTR2a; assay: Cre-luc reporter assay, ligand plus forskolin, COS-7 cells transfected with SSTR2a; format: cell-based, Nile tilapia (Oreochromis niloticus); conditions: FSK 20 μM, subnanomolar concentrations
Source text: as §1

[9] = molecular target: T2, tilapia SSTR3a; assay: Cre-luc reporter assay, ligand plus forskolin, COS-7 cells transfected with SSTR3a; format: cell-based, Nile tilapia (Oreochromis niloticus); conditions: FSK 20 μM, mean ± SEM, read-out: IC50 on SST-R3a (Cre-luciferase)
Source text: as §1

[10] = molecular target: T3, tilapia SSTR5b; assay: Cre-luc reporter assay, ligand plus forskolin, COS-7 cells transfected with SSTR5b; format: cell-based, Nile tilapia (Oreochromis niloticus); conditions: FSK 20 μM, mean ± SEM, read-out: IC50 on SST-R5b (Cre-luciferase)
Source text: as §1

[11] = molecular target: T4, tilapia SSTR3b; assay: Cre-luc reporter assay, ligand plus forskolin, COS-7 cells transfected with SSTR3b; format: cell-based, Nile tilapia (Oreochromis niloticus); conditions: FSK 20 μM alone as backdrop
Method: In brief, COS-7 cells were cotransfected with a luciferase reporter plasmid (Cre-luc; 3 µg) and one of the SSTRs (3 µg). […] Six hours after stimulation, the cells were analyzed using the GloMax multidetection system (Promega).

[12] = test system: human SSTR2; design: method as in PMID 8532003; conditions: cited from earlier work
[13] = test system: SSTR5; design: method as in PMID 8532003; conditions: human; cited from earlier work
[14] = test system: SSTR3a; design: method as in PMID 8532003; conditions: cited from earlier work
[15] = test system: aggressive behavior; design: method as in PMID 16887916; conditions: cichlid fish, 4 mg/kg; cited from earlier work

T4 sequence (I3L056 29-511): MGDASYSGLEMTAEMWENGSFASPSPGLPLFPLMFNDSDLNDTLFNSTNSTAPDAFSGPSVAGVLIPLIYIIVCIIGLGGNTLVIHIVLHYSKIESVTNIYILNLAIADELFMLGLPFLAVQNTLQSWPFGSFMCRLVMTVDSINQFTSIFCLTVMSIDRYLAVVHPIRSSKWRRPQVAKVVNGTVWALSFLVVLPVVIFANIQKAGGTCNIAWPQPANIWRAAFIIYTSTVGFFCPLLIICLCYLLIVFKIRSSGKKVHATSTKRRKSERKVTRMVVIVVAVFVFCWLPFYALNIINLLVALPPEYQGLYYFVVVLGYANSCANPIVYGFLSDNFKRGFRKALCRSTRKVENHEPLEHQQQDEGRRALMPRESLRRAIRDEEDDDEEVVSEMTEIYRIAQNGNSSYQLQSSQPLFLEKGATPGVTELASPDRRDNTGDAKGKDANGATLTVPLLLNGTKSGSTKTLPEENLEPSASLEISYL
T1 sequence (I3KUD5 1-379): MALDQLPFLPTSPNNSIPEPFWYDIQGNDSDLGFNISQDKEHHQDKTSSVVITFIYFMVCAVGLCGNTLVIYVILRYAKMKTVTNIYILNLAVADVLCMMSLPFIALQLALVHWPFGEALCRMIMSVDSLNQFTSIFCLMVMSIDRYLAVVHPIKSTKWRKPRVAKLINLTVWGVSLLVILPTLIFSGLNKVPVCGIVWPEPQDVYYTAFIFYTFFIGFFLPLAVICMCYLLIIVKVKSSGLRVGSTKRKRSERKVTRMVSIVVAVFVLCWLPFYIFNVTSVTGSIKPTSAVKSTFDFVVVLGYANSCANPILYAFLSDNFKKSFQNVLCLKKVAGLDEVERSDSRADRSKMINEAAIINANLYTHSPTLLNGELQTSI

C[C@@H](OCc1ccccc1)[C@@H]1NC(=O)[C@H](CCCCN)NC(=O)[C@@H](Cc2c[nH]c3ccccc23)NC(=O)[C@H](Cc2ccccc2)NC(=O)CCCCCCNC1=O [Cyclosomatostatin, cyclosomatostatin] (cyclo([Ahp]F[dW]KT(Bn)); ring closure inferred)
EC50 ([1]; in presence of octreotide 10 nM and FSK 20 μM, read-out: EC50 on SST-R2a (Cre-luciferase)): 189 ± 4.34 nM | EC50 [2]: 0.1 ± 0.001 nM | EC50 ([3]; in presence of octreotide 10 nM and FSK 20 μM, read-out: EC50 on SST-R5b (Cre-luciferase)): 2.15 ± 0.009 nM | EC50 ([4]; COS-7 cells, in presence of octreotide 10 nM and FSK 20 μM, mean ± SEM, read-out: EC50 on SST-R3b (Cre-luciferase)): 46.2 ± 3.82 nM | Activation of SSTR3b (Cre-luc) ([4]; in the presence of both FSK and octreotide): efficient activation | FSH plasma levels vs control [5]: increased | FSH plasma levels vs control ([5]; listed as SSTR antagonist): remained elevated for 6 h | LH plasma levels vs control [6]: increased | LH plasma levels vs control ([6]; listed as SSTR antagonist): returned to baseline after 4 h | GH plasma levels vs control [7]: the same as in the control fish

C[C@@H](O)[C@@H]1NC(=O)[C@H](CCCCN)NC(=O)[C@@H](Cc2c[nH]c3ccccc23)NC(=O)[C@H](Cc2ccccc2)NC(=O)[C@@H](NC(=O)[C@H](N)Cc2ccccc2)CSSC[C@@H](C(=O)N[C@H](CO)[C@@H](C)O)NC1=O [Octreotide, octreotide]
Effect on tiSSTR2a Cre-luc activity [8]: inhibited | IC50 [9]: 0.004 nM | IC50 [10]: 906 nM and 157 nM | Effect on SSTR3b Cre-luc activity [11]: no discernible activation | IC50 ([1]; in presence of cyclosomatostatin 10 nM and FSK 20 μM, read-out: IC50 on SST-R2a (Cre-luciferase)): 0.81 ± 0.01 nM | IC50 ([3]; in presence of cyclosomatostatin 10 nM and FSK 20 μM, read-out: IC50 on SST-R5b (Cre-luciferase)): 17.4 ± 3.14 nM | IC50 ([4]; COS-7 cells, in presence of cyclosomatostatin 10 nM and FSK 20 μM, mean ± SEM, read-out: IC50 on SST-R3b (Cre-luciferase)): 0.35 ± 0.04 nM | FSH plasma levels vs control [5]: reduced | FSH plasma levels vs control ([5]; listed as octreotide): decreased | LH plasma levels vs control [6]: remained similar to the control; also recorded: no significant effect | LH plasma levels vs control ([6]; listed as octreotide): remained unaffected | GH plasma levels vs control [7]: significantly decreased | Affinity to human SSTR2 [12]: high affinity | Affinity to SSTR5 [13]: high affinity | Affinity to SSTR3a [14]: moderate affinity | Aggressive behavior [15]: decrease

CC(C)C[C@@H]1NC(=O)CNC(=O)[C@H](CCCCN)NC(=O)[C@H](Cc2c[nH]c3ccccc23)NC(=O)[C@H](Cc2ccc(O)cc2)NC(=O)[C@H](Cc2ccccc2)NC(=O)[C@H](CC(N)=O)NC(=O)[C@H](CCCCN)NC(=O)[C@@H](NC(=O)CNC(=O)[C@H](C)N)CSSC[C@@H](C(=O)O)NC(=O)[C@H](CO)NC(=O)[C@H]([C@@H](C)O)NC1=O [SST3] (H-AGCKNFYWKGLTSC-OH; disulfide 3-14; N-terminus and C-terminus assumed)
Effect on tiSSTR2a Cre-luc activity [8]: inhibited | IC50 [9]: 572.9 ± 0.1 nM | IC50 [10]: 720.2 ± 0.5 nM

C[C@H](N)C(=O)N1CCC[C@H]1C(=O)N[C@H]1CSSC[C@@H](C(=O)O)NC(=O)[C@H](CO)NC(=O)[C@H]([C@@H](C)O)NC(=O)[C@H](Cc2ccccc2)NC(=O)[C@H]([C@@H](C)O)NC(=O)[C@H](CCCCN)NC(=O)[C@H](Cc2c[nH]c3ccccc23)NC(=O)[C@H](Cc2ccccc2)NC(=O)[C@H](Cc2ccccc2)NC(=O)[C@H](CC(N)=O)NC(=O)[C@H](CCCCN)NC1=O [SST6] (H-APCKNFFWKTFTSC-OH; disulfide 3-14; N-terminus and C-terminus assumed)
Effect on tiSSTR2a Cre-luc activity [8]: inhibited | IC50 [9]: 3.75 ± 0.04 nM | IC50 [10]: 906.1 ± 0.5 nM
